Like-named read-outs stand apart in the source and are kept apart here. Where a SMILES comes first, the peptide text is derived from it. [ ]: non-standard residue; d: D form. The star is where a group is joined. ξ: configuration not given here. Ala(6-(2-MePh)pyridin-3-yl) = Cc1ccccc1-c1ccc(C[C@H](N)C(=O)O)cn1; Phe(4-(2-Et-4-HO-Ph)) = CCc1cc(O)ccc1-c1ccc(C[C@H](N)C(=O)O)cc1; Bip(2'-Et-4'-OMe) = CCc1cc(OC)ccc1-c1ccc(C[C@H](N)C(=O)O)cc1; Lactoyl(3-(imidazol-4-yl)) = O=C([C@@H](O)Cc1c[nH]cn1)*; Bip(2'-Me) = Cc1ccccc1-c1ccc(C[C@H](N)C(=O)O)cc1; d(αMePhe(2-F)) = C[C@@](N)(Cc1ccccc1F)C(=O)O; αMePhe(2-F) = C[C@](N)(Cc1ccccc1F)C(=O)O; ξαMePhe(2-F) = CC(N)(Cc1ccccc1F)C(=O)O; Thr(3ξ) = CC(O)[C@H](N)C(=O)O; ξαMeP = CC1(C(=O)O)CCCN1; Aib = CC(C)(N)C(=O)O; Moc = COC(=O)*
Legend:
[1] = Dog pharmacokinetic study (intravenous and subcutaneous, 67 μg/kg); format: in vivo; details: for half-life: read-out: t½ (converted)
Procedure: The pharmacokinetic parameters of the compound of SEQ ID NO:9 were determined in male beagle dogs (n=4, 14±1 kg). Following an overnight fast, each animal received the compound of SEQ ID NO:9 either as an intravenous bolus via femoral vein (67 μg/kg) or by subcutaneous injection given at near the shoulder blades (67 μg/kg). Each animal received both intravenous and subcutaneous doses with a one-week washout between doses following a crossover design. […] Serial blood samples were collected in EDTA-containing microcentrifuge tubes at predose, 0.083, 0.25, 0.5, 0.75, 1, 2, 4, 6, 8, 24, and 30 hours post-dose after intravenous administration; at predose, 0.25, 0.5, 0.75, 1, 2, 4, 6, 8, 24, and 30 hours post-dose after subcutaneous administration. Approximately 0.3 mL of blood was collected at each time point. Blood samples were immediately centrifuged at 4° C. The obtained plasma was frozen with dry ice and stored at −20° C. Plasma drug levels were determined using the LC-MS/MS assay described above.
Plasma samples from in vivo dog study were prepared for analysis by precipitating plasma proteins with two volumes of acetonitrile containing an internal standard. The samples were vortex mixed and removed the precipitated proteins by centrifugation. The resulting supernatants were transferred to a 96-well plate and 10 μL were injected for analysis. Samples were prepared with the Packard Multiprobe II and Quadra 96 Liquid Handling System.
The HPLC system consisted of two Shimadzu LC10AD pumps (Columbia, Md.), a CTC PAL autosampler (Leap Technologies, Switzerland). The column used was a YMC Hydrosphere C18 (2.0×50 mm, 3 μm) (YMC, Inc., Milford, Mass.). The column temperature was maintained at 50° C. and the flow rate was 0.3 mL/minute. The mobile phase A consisted of 10 mM ammonium formate and 0.1% formic acid in water and mobile phase B consisted of 0.1% formic acid in acetonitrile. The initial mobile phase composition was 5% B, and remained at 5% B for one minute to equilibrate the column. The composition was ramped to 95% B over two minutes and held there for one additional minute. The mobile phase was then returned to initial conditions in one minute. Total analysis time was five minutes. A switching valve was used. The eluents between 0-1 minute were diverted to the waste.
The HPLC was interfaced to a Sciex API 4000 mass spectrometer, (Applied Biosystems, Foster City, Calif.) and was equipped with a TurboIonspray ionization source. Ultra high purity nitrogen was used as the nebulizing and turbo gas. The temperature of turbo gas was set at 300° C. and the interface heater was set at 60° C. Data acquisition utilized selected reaction monitoring (SRM). Ions representing the (M+2H)^2+ species for the compound of SEQ ID NO:9, and (M+2H)^2+ for BMS-501143 (IS) were selected in Q1 and were collisionally dissociated with high purity nitrogen at a pressure of 3.5×10^−3 torr to form specific product ions which were subsequently monitored by Q3.
The standard curve concentrations, ranging from 1 to 1000 nM and from 4 to 5000 nM, were used for the in vivo samples obtained from low and high doses, respectively. The curves were fitted with a quadratic regression weighted by reciprocal […]. Standards were analyzed in duplicate. Quality control (QC) samples, prepared in blank matrix at the same concentrations as the standard were also analyzed in each analytical set. For the compound of SEQ ID NO:9, the calculated concentrations of more than 80% of the QCs were within 20% of nominal concentration, indicating acceptable assay performance.
The compound of SEQ ID NO:9 plasma concentration vs. time data were analyzed by noncompartmental methods using the […]™ software program. The Cmax and Tmax values were recorded directly from experimental observations. The AUC0-n and AUCtot values were calculated using a combination of linear and log trapezoidal summations. […]

C57BL/6J-ob/ob mice = experiment: Intraperitoneal glucose tolerance test (ipGTT) in ob/ob mice after subcutaneous injection; format: in vivo, mouse; details: for effect on postprandial plasma glucose: sc in ob/ob mice, between 0 and 180 or 210 minutes; for Potency in ob/ob mice ED50: sc injection, plasma glucose AUC in ipGTT
Procedure: Peptides were dissolved in an appropriate vehicle at a concentration in nmol/ml equivalent to the dose that was to be administered in nmol/kg so that each mouse would receive the same volume/weight of dosing solution. Male C57BL/6J-ob/ob mice (10 weeks old) were randomized into groups of 6 mice per group based on fed plasma glucose and body weight. After an overnight fast, mice were weighed and placed in the experimental lab. After 30 min in the environment, the mice were bled via tail tip at −30 min and immediately injected subcutaneously (sc) with vehicle or the peptide dissolved in vehicle (0.1 ml solution/100 g body weight). At time 0 the mice were bled and then injected intraperitoneally with 50% glucose (2 g/kg) to initiate the intraperitoneal glucose tolerance test (ipGTT). The mice were bled 30, 60, 120 and 180 min after the glucose injection. Blood samples were drawn into potassium EDTA, placed on ice during the study and subsequently centrifuged for 10 min at 3000 rpm at 4° C. Plasma samples were diluted 1-fold for glucose analysis in the Cobas System. Another 5 μl plasma sample was diluted 5-fold with 20 μl of Sample Diluent (Insulin ELISA assay kit, Crystal Chem Inc.) and stored at −20° C. for subsequent analysis using the Ultra Sensitive Mouse Insulin ELISA kit (Crystal Chem Inc.).

[2] = Exposure during ipGTT in ob/ob mice; format: in vivo, mouse; details: sc
[3] = Table II, vehicle propylene glycol/pH 7.4 phosphate buffer (1:1)
[4] = Table I, vehicle propylene glycol/pH 7.4 phosphate buffer (1:1)
[5] = Table I, vehicle 0.2 M Tris buffer (pH 8.0)
[6] = male, beagle, plasma, 67 ug/kg, dog, intravenous 67 μg/kg, Tables 6B/6C, vehicle not given
[7] = male, beagle, plasma, sc, 67 ug/kg, dog, subcutaneous 67 μg/kg, Tables 6B/6C (Table I footnote: 0.2 M Tris buffer pH 8.0)

| Structure (SMILES) | Exposure in dogs (sc@67 μg/kg) [1, 3] | effect on postprandial plasma glucose (C57BL/6J-ob/ob mice) | Potency in ob/ob mice ED50 (C57BL/6J-ob/ob mice) | Exposure in dogs (sc@67 μg/kg) [1, 4] | Exposure/dose during ipGTT in ob/ob mice [2] | Exposure in dogs (sc@67 μg/kg) [1, 5] | further results |
| --- | --- | --- | --- | --- | --- | --- | --- |
| CCc1cc(OC)ccc1-c1ccc(C[C@H](NC(=O)[C@H](CC(=O)O)NC(=O)[C@H](CO)NC(=O)[C@@H](NC(=O)[C@](C)(Cc2ccccc2F)NC(=O)[C@@H](NC(=O)CNC(=O)[C@H](CCC(=O)O)NC(=O)[C@@H](C)NC(=O)[C@@H](N)Cc2c[nH]cn2)[C@@H](C)O)[C@@H](C)O)C(=O)N[C@@H](Cc2ccc(-c3ccccc3C)nc2)C(N)=O)cc1 [SEQ ID NO: 149] (H-H[dA]EGT[αMePhe(2-F)]TSD[Bip(2'-Et-4'-OMe)][Ala(6-(2-MePh)pyridin-3-yl)]-NH2) | 940 nM·h |  |  |  |  |  |  |
| CCc1cc(OC)ccc1-c1ccc(C[C@H](NC(=O)[C@H](CC(=O)O)NC(=O)[C@H](CO)NC(=O)[C@@H](NC(=O)C(C)(Cc2ccccc2F)NC(=O)[C@@H](NC(=O)CNC(=O)[C@H](CCC(=O)O)NC(=O)C2(C)CCCN2C(=O)[C@@H](N)Cc2c[nH]cn2)[C@@H](C)O)[C@@H](C)O)C(=O)N[C@@H](Cc2ccc(-c3ccccc3C)nc2)C(N)=O)cc1 (stereo partly shown) [SEQ ID NO: 118] (H-H[ξαMeP]EGT[ξαMePhe(2-F)]TSD[Bip(2'-Et-4'-OMe)][Ala(6-(2-MePh)pyridin-3-yl)]-NH2) |  | statistically significant decrease | 2.5 nmol/kg | 4020 nM·h | 4.4 nM*h/nmol/kg |  | plasma glucose AUC decrease (C57BL/6J-ob/ob mice; 30 nmol/kg sc, ipGTT ob/ob mice): 81% |
| CCc1cc(O)ccc1-c1ccc(C[C@H](NC(=O)[C@H](CC(=O)O)NC(=O)[C@H](CO)NC(=O)[C@@H](NC(=O)C(C)(Cc2ccccc2F)NC(=O)[C@@H](NC(=O)CNC(=O)[C@H](CCC(=O)O)NC(=O)C2(C)CCCN2C(=O)[C@H](Cc2c[nH]cn2)NC(=O)OC)[C@@H](C)O)[C@@H](C)O)C(=O)N[C@@H](Cc2ccc(-c3ccccc3C)nc2)C(N)=O)cc1 (stereo partly shown) [SEQ ID NO: 158] (Moc-H[ξαMeP]EGT[ξαMePhe(2-F)]TSD[Phe(4-(2-Et-4-HO-Ph))][Ala(6-(2-MePh)pyridin-3-yl)]-NH2) |  | statistically significant decrease |  |  | 11 nM*h/nmol/kg | 1467 nM·h |  |
| CCc1cc(OC)ccc1-c1ccc(C[C@H](NC(=O)[C@H](CC(=O)O)NC(=O)[C@H](Cc2c[nH]cn2)NC(=O)[C@@H](NC(=O)C(C)(Cc2ccccc2F)NC(=O)[C@@H](NC(=O)CNC(=O)[C@H](CCC(=O)O)NC(=O)C2(C)CCCN2C(=O)[C@@H](O)Cc2c[nH]cn2)[C@@H](C)O)[C@@H](C)O)C(=O)N[C@@H](Cc2ccc(-c3ccccc3C)nc2)C(N)=O)cc1 (stereo partly shown) [SEQ ID NO: 151] ({Lactoyl(3-(imidazol-4-yl))}-[ξαMeP]EGT[ξαMePhe(2-F)]THD[Bip(2'-Et-4'-OMe)][Ala(6-(2-MePh)pyridin-3-yl)]-NH2) |  | statistically significant decrease |  |  | 16 nM*h/nmol/kg | 1566 nM·h | AUC [1, 6]: 1520 ± 424 nM·h; MRT [1, 6]: 4.4 ± 0.1 h; clearance ([1]; male, beagle, plasma, 67 ug/kg, dog, intravenous 67 μg/kg, Tables 6B/6C, vehicle not given, read-out: CLp): 0.0294 ± 0.0096 L/h/kg; Vd ([1]; male, beagle, plasma, 67 ug/kg, dog, intravenous 67 μg/kg, Tables 6B/6C, vehicle not given, read-out: Vss): 0.13 ± 0.05 L/kg; half-life [1, 6]: 4 ± 0.2 h; AUC [1, 7]: 1570 ± 235 nM·h; MRT [1, 7]: 5.8 ± 1 h; Tmax [1, 7]: 1.8 ± 0.5 h; bioavailability [1, 7]: 110 ± 41%; Cmax ([1]; male, beagle, plasma, sc, 67 ug/kg, dog, subcutaneous 67 μg/kg, Tables 6B/6C (Table I footnote: 0.2 M Tris buffer pH 8.0), read-out: Cmax): 0.252 ± 0.015 µM; half-life [1, 7]: 4.4 ± 1.4 h |
| CCc1cc(OC)ccc1-c1ccc(C[C@H](NC(=O)[C@H](CC(=O)O)NC(=O)[C@H](CO)NC(=O)[C@@H](NC(=O)[C@@](C)(Cc2ccccc2F)NC(=O)[C@@H](NC(=O)CNC(=O)[C@H](CCC(=O)O)NC(=O)C(C)(C)NC(=O)[C@@H](N)Cc2c[nH]cn2)C(C)O)C(C)O)C(=O)N[C@@H](Cc2ccc(-c3ccccc3C)cc2)C(N)=O)cc1 (stereo partly shown) [Compound I, reference compound] (H-H[Aib]EG[Thr(3ξ)][d(αMePhe(2-F))][Thr(3ξ)]SD[Bip(2'-Et-4'-OMe)][Bip(2'-Me)]-NH2) | 89 nM·h |  | 50 nmol/kg | 89 nM·h | 22 nM*h/nmol/kg |  | Potency in ob/ob mice: % AUC Reduction in Plasma Glucose in an IP Glucose Tolerance Test after SC Injection of Compound (C57BL/6J-ob/ob mice; 10 nmol/kg sc, relative to vehicle-treated group): −15% (p = 0.247, NS) |
